Measured values from patent EP0598011B1, “ECDYSTEROID DEPENDENT REGULATION OF GENES IN MAMMALIAN CELLS” (GENENTECH, INC., priority 1991, dated 1993).

Target: T1, VGEc (Drosophila melanogaster, UniProt P34021)
T1 construct: expressed in transfected cells; host or cells: 293 cells
T1 sequence (P34021 329-878): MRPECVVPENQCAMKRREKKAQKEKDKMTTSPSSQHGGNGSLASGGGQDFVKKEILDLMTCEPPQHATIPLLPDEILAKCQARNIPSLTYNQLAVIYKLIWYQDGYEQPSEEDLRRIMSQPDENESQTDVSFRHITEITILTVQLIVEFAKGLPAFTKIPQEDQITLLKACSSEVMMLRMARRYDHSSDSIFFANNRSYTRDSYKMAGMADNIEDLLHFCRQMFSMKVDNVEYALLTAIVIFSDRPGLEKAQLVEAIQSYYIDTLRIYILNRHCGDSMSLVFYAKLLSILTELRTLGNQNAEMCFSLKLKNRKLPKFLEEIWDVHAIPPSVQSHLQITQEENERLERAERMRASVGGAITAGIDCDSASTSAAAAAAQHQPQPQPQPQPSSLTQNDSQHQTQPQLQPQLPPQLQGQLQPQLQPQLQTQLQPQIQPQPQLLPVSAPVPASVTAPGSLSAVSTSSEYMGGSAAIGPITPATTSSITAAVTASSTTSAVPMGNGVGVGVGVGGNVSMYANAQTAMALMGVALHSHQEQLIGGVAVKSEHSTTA
Test: Induction of GRE reporter G4M-77CO by chimeric receptor VGEc in 293 cells
Type: cell-based
Conditions: normalized to hGH, SD in parentheses
Text: Finally, I determined if the activity of DHR23α fusion proteins could be further enhanced by inclusion of a potent viral transactivation domain. I constructed VGEc and VLxEc fusion genes by replacing a portion of the GR N-terminal activation domain in GGEc and GLxEc, respectively, with the herpes virus VP16 acidic activation domain (I. Sadowski et al., […]. 335, 563 [1988]; D. J. Cousens, R. Greaves, C. R. Coding, and P. O'Hare, EMBO J. 8, 2337 [1989]) (Fig. 4A). In transfected cells, these proteins accumulated to similar levels as derivatives lacking the VP16 activation domain (Fig. 4B). Both VGEc and VLxEc acted in an ecdysteroid-dependent fashion to induce activity of the appropriate reporter gene (Tables 1 and 2). However, the activity of VGEc and VLxEc was 5 and 10 fold greater than GGEc and GLxEc, respectively (M..A. Labow, S.B. Baim, T. Shenk, and A. J. Levine, Mol. and Cell. Biol. 10, 3343 [1990]). Thus, the DHR23α ligand-binding domain can be used to regulate the activities of viral, mammalian and bacterial DNA-binding or transactivation domains.

For `CC(C)CCC(O)[C@](C)(O)[C@H]1CC[C@@]2(O)C3=CC(=O)C4(O)CC(O)C(O)C[C@]4(C)[C@H]3C(O)C[C@]12C` (stereo partly shown) [muristerone A, 2,3,5,11,14,20,22-Heptahydroxy-7-cholesten-6-one], the fold induction was 3117 (240) fold.
